The values that follow come from patent publication US9144241B2, “Synergistic pesticidal compositions and related methods” (Dow AgroSciences LLC, priority 2013, dated 2015).

The subject of the assay is diamondback moth, Plutella xylostella. Put plainly: Diamondback moth bioassay on track-sprayed cabbage plants/leaf discs; synergy by Colby's equation. The note with it: single active, second instar larvae, 400 L/Ha spray. It counts as in vivo. The source says:
The method described in Colby S. R., “Calculating Synergistic and Antagonistic Responses of Herbicide Combinations,” Weeds, 1967, 15, 20-22 was used to determine an existence of synergic effect between the acetyl CoA carboxylase inhibitor compound and the pesticide (I), (II), or any agriculturally acceptable salt thereof in the formulated pesticidal composition.
Three second instar diamondback moth, Plutella xylostella, were infested onto each leaf disc. […] The “Colby's Expected Action” was calculated using Colby's equation as discussed previously.
Three second instar diamondback moth, Plutella xylostella, were infested onto each leaf disc.
The percent control may be determined some time after treatment.

As to `CCN(C(=O)CCSCCC(F)(F)F)c1cn(-c2cccnc2)nc1Cl` [Compound I, N-(3-chloro-1-(pyridin-3-yl)-1H-pyrazol-4-yl)-N-ethyl-3-((3,3,3-trifluoropropyl)thio) propanamide], the “% Control Three Days After Treatment” value reads like this: (dose rate 0.000625 weight %) 0%; (dose rate 0.0025 weight %) “no activity”.

Consider `CCOC(=O)OC1=C(c2cc(C)ccc2C)C(=O)N[C@]12CC[C@@H](OC)CC2` [Spirotetramat, cis-3-(2,5-dimethylphenyl)-8-methoxy-2-oxo-1-azaspiro[4.5]dec-3-en-4-yl ethylcarbonate, reference compound], for which the “% Control Three Days After Treatment” value runs as follows: (dose rate 0.0015625 weight %) 0%; (dose rate 0.0015625 weight %, listed as spirotetramat) “no activity”.

As to `CCN(C(=O)CC[S+]([O-])CCC(F)(F)F)c1cn(-c2cccnc2)nc1Cl` (centres unmarked) [Compound II, N-(3-chloro-1-(pyridin-3-yl)-1H-pyrazol-4-yl)-N-ethyl-3-((3,3,3-trifluoropropyl)sulfinyl)propanamide], the “% Control Three Days After Treatment” value (dose rate 0.000625 weight %) was 0%.
